Several values for one entry are separate records, joined by “and”; a condition that tells them apart may be missing. Equal entries are not always repeated. Inconclusive results and toxic doses are left out. Cut-off read from the data, not from the text of the source: active = T/C of 150% or more; inactive = T/C below 125%.
System: L1210 leukemia ip in BDF1 mice, survival T/C
Assay: NCI In Vivo Anticancer Drug Screen. Data for tumor model L1210 Leukemia (intraperitoneal) in B6D2F1 (BDF1) mice
Conditions: endpoint: mean survival time, higher = longer survival
Outline: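 Read-out is survival time, reported as the treated-group measurement over the vehicle-control measurement.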

[1] = dose: 100.0 mg/kg/injection, schedule: Q01DX001 (ip), vehicle: carboxymethylcellulose (CMC)
[2] = dose: 200.0 mg/kg/injection, schedule: Q01DX001 (ip), vehicle: carboxymethylcellulose (CMC)
[3] = dose: 400.0 mg/kg/injection, schedule: Q01DX001 (ip), vehicle: carboxymethylcellulose (CMC)
[4] = dose: 100.0 mg/kg/injection, schedule: Q01DX009 (ip), vehicle: saline
[5] = dose: 200.0 mg/kg/injection, schedule: Q01DX009 (ip), vehicle: saline
[6] = dose: 100.0 mg/kg/injection, schedule: Q04DX003 (ip), vehicle: saline with Tween-80
[7] = dose: 200.0 mg/kg/injection, schedule: Q04DX003 (ip), vehicle: saline with Tween-80

Measured: T/C

CC(N)C(=O)NC(Cc1ccccc1)C(=O)O (stereo unspecified)
inactive: dose: 100.0 mg/kg/injection, schedule: Q01DX001 (ip), vehicle: acetone 101 % of control | dose: 200.0 mg/kg/injection, schedule: Q01DX001 (ip), vehicle: acetone 97 % of control | dose: 400.0 mg/kg/injection, schedule: Q01DX001 (ip), vehicle: acetone 101 % of control

c1ccc(CCN(c2ccccc2)c2ccccc2)cc1
inactive: [1] 100 % of control | [2] 103 % of control | [3] 103 % of control

CCOP(=O)(OCC)C(CC=C(C)C)C(C)=O (stereo unspecified)
inactive: dose: 50.0 mg/kg/injection, schedule: Q01DX009 (ip), vehicle: saline with Tween-80 100 % of control | dose: 100.0 mg/kg/injection, schedule: Q01DX009 (ip), vehicle: saline with Tween-80 94 % of control | dose: 200.0 mg/kg/injection, schedule: Q01DX009 (ip), vehicle: saline with Tween-80 88 % of control

CC1CN1P(=O)(N1CCCCC1)N1CC1C (stereo unspecified)
inactive: dose: 11.0 mg/kg/injection, schedule: Q01DX Z (ip), vehicle: carboxymethylcellulose (CMC) 97 % of control | dose: 11.0 mg/kg/injection, schedule: Q01DX Z (ip), vehicle: saline 109 % of control | dose: 13.0 mg/kg/injection, schedule: Q01DX Z (ip), vehicle: carboxymethylcellulose (CMC) 102 % of control | dose: 17.0 mg/kg/injection, schedule: Q01DX Z (ip), vehicle: carboxymethylcellulose (CMC) 119 % of control | dose: 17.0 mg/kg/injection, schedule: Q01DX Z (ip), vehicle: saline 116 % of control | dose: 20.0 mg/kg/injection, schedule: Q01DX Z (ip), vehicle: carboxymethylcellulose (CMC) 102 % of control | dose: 25.0 mg/kg/injection, schedule: Q01DX Z (ip), vehicle: carboxymethylcellulose (CMC) 104 % of control and 116 % of control | dose: 25.0 mg/kg/injection, schedule: Q01DX Z (ip), vehicle: saline 104 % of control | dose: 30.0 mg/kg/injection, schedule: Q01DX Z (ip), vehicle: carboxymethylcellulose (CMC) 105 % of control | dose: 38.0 mg/kg/injection, schedule: Q01DX Z (ip), vehicle: carboxymethylcellulose (CMC) 115 % of control and 116 % of control | dose: 45.0 mg/kg/injection, schedule: Q01DX Z (ip), vehicle: carboxymethylcellulose (CMC) 100 % of control and 115 % of control | dose: 57.0 mg/kg/injection, schedule: Q01DX Z (ip), vehicle: saline 118 % of control | dose: 85.0 mg/kg/injection, schedule: Q01DX Z (ip), vehicle: carboxymethylcellulose (CMC) 109 % of control | dose: 86.0 mg/kg/injection, schedule: Q01DX Z (ip), vehicle: saline 102 % of control and 113 % of control

Cn1c2c(c(=O)[nH]c1=O)OCN(Cc1ccccc1)C2
inactive: dose: 50.0 mg/kg/injection, schedule: Q01DX001 (ip), vehicle: carboxymethylcellulose (CMC) 91 % of control | [1] 100 % of control | [2] 94 % of control | [3] 100 % of control

O=C(COc1ccc(Cl)c(Cl)c1)NCc1ccc([N+](=O)[O-])cc1
inactive: dose: 100.0 mg/kg/injection, schedule: Q04DX003 (ip), vehicle: Klucel (hydroxypropylcellulose) (HPC) 90 % of control | dose: 200.0 mg/kg/injection, schedule: Q04DX003 (ip), vehicle: Klucel (hydroxypropylcellulose) (HPC) 92 % of control | dose: 400.0 mg/kg/injection, schedule: Q04DX003 (ip), vehicle: Klucel (hydroxypropylcellulose) (HPC) 88 % of control

Nc1ncc(C[P+](c2ccccc2)(c2ccccc2)c2ccccc2)c(N)n1
inactive: dose: 12.5 mg/kg/injection, schedule: Q04DX003 (ip), vehicle: Klucel (hydroxypropylcellulose) (HPC) 102 % of control | dose: 25.0 mg/kg/injection, schedule: Q04DX003 (ip), vehicle: Klucel (hydroxypropylcellulose) (HPC) 112 % of control | dose: 50.0 mg/kg/injection, schedule: Q04DX003 (ip), vehicle: Klucel (hydroxypropylcellulose) (HPC) 105 % of control

CCOC(=O)C(CC1OCCO1)C1=NC(C)(C)CC(C)O1 (stereo unspecified)
inactive: [4] 96 % of control | dose: 100.0 mg/kg/injection, schedule: Q04DX003 (ip), vehicle: saline 106 % of control | [5] 100 % of control | dose: 200.0 mg/kg/injection, schedule: Q04DX003 (ip), vehicle: saline 92 % of control | dose: 400.0 mg/kg/injection, schedule: Q01DX009 (ip), vehicle: saline 96 % of control | dose: 400.0 mg/kg/injection, schedule: Q04DX003 (ip), vehicle: saline 92 % of control

NC1C2C3C=CC(C3)C12 (stereo unspecified)
inactive: [4] 107 % of control | [5] 100 % of control

CCCCCCCCCCCCCCCCCCN1C(=O)C2C(C1=O)C1(Cl)C(Cl)=C(Cl)C2(Cl)C1(Cl)Cl (stereo unspecified)
inactive: [6] 96 % of control | [7] 93 % of control

Cc1ccc(CO)cc1C
inactive: dose: 50.0 mg/kg/injection, schedule: Q04DX003 (ip), vehicle: saline with Tween-80 95 % of control | [6] 104 % of control | [7] 93 % of control

Source: PubChem BioAssay AID248 (DTP/NCI, 2004)
